Tests used:
[1] = staining test for dentine-sealing effect (rhodamine, colorimetry)
Method: The components were produced as described in example 1.
After the application of the gels, a staining test was used to check if a dentine-sealing effect occurred. Acids that were insoluble at the requisite conditions were not tested further.
Principle of the staining test: The samples are measured by colorimetry on the coated and uncoated side after staining with 1% rhodamine solution using a Spectraflash 600 Plus two-channel spectrometer with the CIE L*a*b* system and aperture 3 mm X4SAV. The difference in colour is reported as the delta value (colour difference).
Tris buffer (pH value: 7.2 to 9.0) was used in the Ca gel. A sodium acetate buffer (pH value: 3.7 to 5.7) was used in the P gel.

[2] = solubility and appearance of pre-treatment, calcium and phosphate solutions made with the acid
Method: For component A containing phosphate ions, a solution containing 29.5 g NaH2PO4, 33 g Olaflur, and 27.0 g lactic acid was produced. […] A total of 24 ml of the solution and 6 g glycerol and 10 g of 300 Bloom pork rind gelatine were processed while heating to form a viscous solution. A small amount of liquid was placed in a template with a wall thickness of 500 μm and exposed to 2 bar of pressure. After solidification, the strips were removed from the template and cut into 1×1 cm squares.
For component B containing calcium ions, a calcium chloride solution containing 29.4 g calcium chloride dihydrate and 6.3 g lactic acid was prepared. […] The solution was topped up to 200 ml with de-ionized water. In order to produce the gel, 21.6 g of the solution and 8.24 g glycerol and 8 g calcium sulfate and 13.6 g 300 Bloom gelatine were mixed and heated. The liquid gel was then spread with a squeegee to a thickness of 1 mm or pressed in a template with a wall thickness of 1 mm. After solidification, the strips were cut into 1×1 cm squares. For the pre-treatment solution (mouthwash), a 0.1 mol Tris buffer was added to a 1 molar calcium chloride solution and the pH was adjusted to 9.0.

[3] = colour difference coated vs uncoated side after staining with 1% rhodamine solution, CIE L*a*b*
[4] = as E1, P gel combined with acetic acid-Ca gel

Row | SMILES | deposition after application of the kit [1] | Functional test (delta E) [1, 3] | further results
1 | O=C1O[C@H]([C@@H](O)CO)C(O)=C1O [Ascorbic acid] | show deposition | 56.64 ± 9.85 | –
2 | N[C@@H](CC(=O)O)C(=O)O [Aspartic acid] | show deposition | 45.96 ± 2.63 | –
3 | O=C(O)CO [Glycolic acid] | show deposition | – | Functional test (delta E) [1, 4]: 35.32 ± 4.19
4 | CC(O)C(=O)O (stereo not drawn) [Lactic acid] | show deposition | 49.83 ± 4.02 | –
5 | O=C(O)CC(O)C(=O)O (stereo not drawn) [Malic acid] | show deposition | 42.41 ± 5.39 | solubility of the calcium salt of the acid [2]: sufficiently soluble; Pre-treatment solution: solubility/appearance ([2]; pH 8.5): precipitation; Pre-treatment solution: solubility/appearance ([2]; pH 9.02): pH 9.02 clear; Pre-treatment solution: solubility/appearance ([2]; pH 9.53): pH 9.53 clear
6 | O=C(O)c1ccccc1O [Salicylic acid] | – | – | solubility of the acid (merged cell spanning the solution columns) [2]: insoluble
7 | O=C(O)c1ccc(C(=O)O)c(C(=O)O)c1 [Trimellitic acid] | – | – | Functional test (delta E) [1, 4]: 42.05 ± 11.24; Ca gel solution: solubility/appearance [2]: precipitation
8 | O=C(O)C(CO)c1ccccc1 (stereo not drawn) [Tropic acid] | – | – | solubility of the acid (merged cell spanning the solution columns) [2]: insoluble
